Where a name gives a salt, the structure may show the parent alone.
Tests used:
[1] = tested on: allergic manifestations caused by antigen-antibody interaction; settings: tris(hydroxymethyl)aminomethane salts; U.S. Ser. No. 233,772 and 261,524; cited from earlier work
[2] = tested on: rat passive cutaneous anaphylaxis; assay: rat passive cutaneous anaphylaxis (PCA) test; format: in vivo, rat (female Sprague-Dawley); design: key to Spot Score: total detectable spots divided by number of animals; settings: for % Inhibition in Rat PCA: 48 hour sensitization
From the text: The compound under review is first tested in the rat passive cutaneous anaphylaxis test system. This test is employed to determine if the compound does inhibit allergic manifestations. A DSCG biologue will inhibit allergic manifestations. The anti-allergy activity of DSCG biologues vary.
Female Sprague-Dawley 250 gm. rats are skin-sensitized with rat anti-ovalbumin homocytotropic antibody that is heat labile and has a passive cutaneous anaphylaxis titer of (1:128). After a 72-hour latency period, the animals are challenged i.v. with a 4 mg. ovalbumin (OA) + 5 mg. Evans blue dye. Thirty minutes later the extravascular bluing that results from antigen antibody combination at the skin site is read. Antibody dilutions are used such that in control animals a 4 mm spot in the lowest detectable spot, and 4 or 5 lower dilutions are used to give a range of antibody in each animal. Four to five animals are used for each variable in the experiment. Percent inhibition of the PCA assay is calculated by comparing the spot scores of DSCG treated rats with the spot scores of control rats. The spot score is the total number of detectable spots over the number of animals.
DSCG Priming Treatment: Passively sensitized rats are injected i.v. 2.0 hours before antigen challenge i.v. Two hours after an i.v. priming dose of 10 mg./kg. DSCG, the rats are challenged with antigen alone.
The time course of the effective life of DSCG in rats is shown in Table I. DSCG was administered i.p. and was followed by i.v. challenge with 4 mg. ovalbumin and 5 mg. of Evans Blue. Spot score was calculated 30 minutes later from a total of four animals for each time point.
The animals are rested 2 hours between primary i.v. DSCG injection and i.v. antigen challenge, including secondary DSCG dosing. In view of Table I, this time period is of such a length that the effect from the initial dose of DSCG is not a significant factor.
The effect of a time lag between priming doses and secondary doses with regard to the drug sparing effect and the responsiveness of the treated mammal to further treatment with DSCG or a DSCG biologue is shown in Table III. Rats were injected once daily with 10 mg./kg. DSCG for three days. Control rats were also injected with 1.0 ml. of saline at the same time. Twenty and 48 hours after the last dose of DSCG in the three dose series all rats were injected with DSCG. 4 mg. ovalbumin, and 5 mg. of Evans Blue dye.
Th sparing effect using a DSCG biologue, the tris(hydroxymethyl)aminomethane salt of 10-chloro-1,4,6,9-tetrahydro-4,6-dioxopyrido[3,2-g]quinoline-2,8-dicarboxylic acid, referred to as Compound 10 Cl in this Example, is shown in the rat PCA of Table IV. When using this compound in a priming situation, 2.0 mg./kg., 1.0 mg./kg., 0.025 mg./kg. and 0.01 mg./kg. give inhibitions of 93, 86, 44 and 0% respectively. The data of Table IV are obtained in the usual manner except that a 48 hour instead of a 72 hour sensitization period was used.

[3] = tested on: allergic and anaphylactic conditions; settings: cited from earlier work
[4] = man; cited from earlier work
[5] = tested on: mediators of anaphylaxis; settings: cited from earlier work
[6] = 10 mg./kg. i.p., 5 min before i.v. challenge
[7] = 10 mg./kg. i.p., 7 min before i.v. challenge
[8] = 10 mg./kg. i.p., 10 min before i.v. challenge
[9] = 10 mg./kg. i.p., 15 min before i.v. challenge
[10] = 10 mg./kg. i.p., 18 min before i.v. challenge
[11] = 10 mg./kg. i.p., 20 min before i.v. challenge
[12] = 10 mg./kg. i.p., 25 min before i.v. challenge
[13] = 10 mg./kg. i.p., 30 min before i.v. challenge
[14] = 10 mg./kg. i.p., 60 min before i.v. challenge

## Cc1c2[nH]c(C(=O)O)cc(=O)c2cc2c(=O)cc(C(=O)O)[nH]c12 [1,4,6,9-tetrahydro-10-methyl-4,6-dioxopyrido[3,2-g]quinoline-2,8-dicarboxylic acid]
[1]
  ability to prophylactically protect against allergic manifestations: have this ability to prophylactically protect against allergic manifestations

## O=C(O)c1cc(=O)c2cc3c(=O)cc(C(=O)O)[nH]c3c(Cl)c2[nH]1 [Compound 10 Cl, tris(hydroxymethyl)aminomethane salt of 10-chloro-1,4,6,9-tetrahydro-4,6-dioxopyrido[3,2-g]quinoline-2,8-dicarboxylic acid]
[2]; 0.01 mg./kg. maintenance dose, primed with 2.0 or 1.0 mg./kg.
  sparing: sparing is seen
[2]; 0.01 mg./kg. priming
  inhibition in a priming situation: 0%
[2]; 0.025 mg./kg. priming
  inhibition in a priming situation: 44%
[2]; 1.0 mg./kg. priming
  inhibition in a priming situation: 86%
[2]; 2.0 mg./kg. priming
  inhibition in a priming situation: 93%
[2]; priming 0.01 mg./kg., secondary 0.01 mg./kg.
  % Inhibition in Rat PCA: 6%
[2]; priming 0.01 mg./kg., secondary 0.025 mg./kg.
  % Inhibition in Rat PCA: 44%
[2]; priming 0.01 mg./kg., secondary 1.0 mg./kg.
  % Inhibition in Rat PCA: 71%
[2]; priming 0.01 mg./kg., secondary 2.0 mg./kg.
  % Inhibition in Rat PCA: 80%
[2]; priming 0.025 mg./kg., secondary 0.01 mg./kg.
  % Inhibition in Rat PCA: 6%
[2]; priming 0.025 mg./kg., secondary 0.025 mg./kg.
  % Inhibition in Rat PCA: 23%
[2]; priming 0.025 mg./kg., secondary 1.0 mg./kg.
  % Inhibition in Rat PCA: 52%
[2]; priming 0.025 mg./kg., secondary 2.0 mg./kg.
  % Inhibition in Rat PCA: 62%
[2]; priming 1.0 mg./kg., secondary 0.01 mg./kg.
  % Inhibition in Rat PCA: 44%
[2]; priming 1.0 mg./kg., secondary 0.025 mg./kg.
  % Inhibition in Rat PCA: 44%
[2]; priming 1.0 mg./kg., secondary 1.0 mg./kg.
  % Inhibition in Rat PCA: 44%
[2]; priming 1.0 mg./kg., secondary 2.0 mg./kg.
  % Inhibition in Rat PCA: 52%
[2]; priming 2.0 mg./kg., secondary 0.01 mg./kg.
  % Inhibition in Rat PCA: 52%
[2]; priming 2.0 mg./kg., secondary 0.025 mg./kg.
  % Inhibition in Rat PCA: 33%
[2]; priming 2.0 mg./kg., secondary 1.0 mg./kg.
  % Inhibition in Rat PCA: 14%
[2]; priming 2.0 mg./kg., secondary 2.0 mg./kg.
  % Inhibition in Rat PCA: 6%
[1]
  ability to prophylactically protect against allergic manifestations: have this ability to prophylactically protect against allergic manifestations

## O=C(O)c1cc(=O)c2c(OCC(O)COc3cccc4oc(C(=O)O)cc(=O)c34)cccc2o1 [DSCG, disodium salt of 1,3-bis(2-carboxychromon-5-yloxy)-2-hydroxypropane]
[3]; administered in a prophylactic manner
  relief from allergic and anaphylactic conditions: provides relief from allergic and anaphylactic conditions
[3]; same dose level, significant number of individuals
  inhibition of allergic manifestations on continuing administration: lower levels of inhibition which may be clinically ineffective
[2]; 0.1 mg. priming dose
  inhibition given as a priming dose: does not provide any inhibition
[2]; [6]
  % Inhibition: 26%
  Spot Score: 1.67
[2]; [7]
  % Inhibition: 26%
  Spot Score: 1.67
[2]; [8]
  % Inhibition: 73%
  Spot Score: 0.66
[2]; [9]
  % Inhibition: 51%
  Spot Score: 1.00
[2]; [10]
  % Inhibition: 44%
  Spot Score: 1.25
[2]; [11]
  % Inhibition: 33%
  Spot Score: 1.50
[2]; [12]
  % Inhibition: 26%
  Spot Score: 1.67
[2]; [13]
  % Inhibition: 11%
  Spot Score: 2.0
[2]; [14]
  % Inhibition: 11%
  Spot Score: 2.0
[2]; 10 mg./kg. i.p., in 30 minutes
  persistence of inhibiting effect: most of the inhibiting effect of DSCG has disappeared
[2]; 10 mg./kg. i.v. priming, antigen challenge i.v. 2 hours later
  inhibitory effect in rat PCA after priming dose alone: No inhibitory effects are observed
[2]; 10 mg./kg. priming dose
  inhibition given as a priming dose: 79%
[2]; 10 mg./kg., i.v. at challenge
  % Inhibition: 100%
  Spot Score: 0
[2]; 20 hours post priming
  drug sparing effect from the priming dosage: present at 20 hours post priming
[2]; 48 hours post priming
  drug sparing effect from the priming dosage: has disappeared at 48 hours post priming
[2]; high doses in priming and secondary dose situation
  effect of high priming doses on high secondary doses: inhibit the action of high doses of DSCG in the secondary dose situation
[2]; priming 0.1 mg./kg. i.v., secondary DSCG 0.1 mg./kg. with antigen 2 hours later
  Inhibition in Rat PCA: 2%
[2]; priming 0.1 mg./kg. i.v., secondary DSCG 1.0 mg./kg. with antigen 2 hours later
  Inhibition in Rat PCA: 39%
[2]; priming 0.1 mg./kg. i.v., secondary DSCG 10 mg./kg. with antigen 2 hours later
  Inhibition in Rat PCA: 79%
[2]; priming 1.0 mg./kg. i.v., secondary DSCG 0.1 mg./kg. with antigen 2 hours later
  Inhibition in Rat PCA: 27%
[2]; priming 1.0 mg./kg. i.v., secondary DSCG 1.0 mg./kg. with antigen 2 hours later
  Inhibition in Rat PCA: 39%
[2]; priming 1.0 mg./kg. i.v., secondary DSCG 10 mg./kg. with antigen 2 hours later
  Inhibition in Rat PCA: 98%
[2]; priming 10 mg./kg. i.v., secondary DSCG 0.1 mg./kg. with antigen 2 hours later
  Inhibition in Rat PCA: 39%
[2]; priming 10 mg./kg. i.v., secondary DSCG 1.0 mg./kg. with antigen 2 hours later
  Inhibition in Rat PCA: 51%
[2]; priming 10 mg./kg. i.v., secondary DSCG 10 mg./kg. with antigen 2 hours later, mean percent from 15 animals
  Inhibition in Rat PCA: 51%
[2]; saline i.v. 3 times, then DSCG dose 0.1
  % Inhibition in the Rat PCA: 0%
[2]; saline i.v. 3 times, then DSCG dose 1.0
  % Inhibition in the Rat PCA: 11%
[2]; saline i.v. 3 times, then DSCG dose 5.0
  % Inhibition in the Rat PCA: 47%
[2]; saline i.v. 3 times, then DSCG dose 10
  % Inhibition in the Rat PCA: 82%
[2]; secondary DSCG dose 0, 48 hours after last of three daily 10 mg./kg. DSCG
  % Inhibition in the Rat PCA: 0%
[2]; secondary DSCG dose 0.05, 20 hours after last of three daily 10 mg./kg. DSCG
  % Inhibition in the Rat PCA: 47%
[2]; secondary DSCG dose 0.05, 48 hours after last of three daily 10 mg./kg. DSCG
  % Inhibition in the Rat PCA: 2%
[2]; secondary DSCG dose 0.1, 20 hours after last of three daily 10 mg./kg. DSCG
  % Inhibition in the Rat PCA: 52%
[2]; secondary DSCG dose 0.1, 48 hours after last of three daily 10 mg./kg. DSCG
  % Inhibition in the Rat PCA: 0%
[2]; secondary DSCG dose 1.0, 20 hours after last of three daily 10 mg./kg. DSCG
  % Inhibition in the Rat PCA: 58%
[2]; secondary DSCG dose 5.0, 20 hours after last of three daily 10 mg./kg. DSCG
  % Inhibition in the Rat PCA: 20%
[2]; secondary DSCG dose 5.0, 48 hours after last of three daily 10 mg./kg. DSCG
  % Inhibition in the Rat PCA: 65%
[2]; secondary DSCG dose 10, 20 hours after last of three daily 10 mg./kg. DSCG
  % Inhibition in the Rat PCA: 20%
[2]; secondary DSCG dose 10, 48 hours after last of three daily 10 mg./kg. DSCG
  % Inhibition in the Rat PCA: 73%
[4]
  serum half life: approximately 2 minutes

## CCCCC[C@H](O)/C=C/[C@H]1[C@H](O)CC(=O)[C@@H]1CCCCCCC(=O)O [Prostaglandin E1]
[5]
  response in the DSCG biologue tests: respond appropriately to some of the tests but not all of them

## CCCCC[C@H](O)/C=C/[C@H]1[C@H](O)CC(=O)[C@@H]1C/C=C\CCCC(=O)O [Prostaglandin E2]
[5]
  response in the DSCG biologue tests: respond appropriately to some of the tests but not all of them

## O=C(O)c1cc(=O)c2cc(-c3ccc4[nH]c(C(=O)O)cc(=O)c4c3)ccc2[nH]1 [tris(hydroxymethyl)aminomethane salt of 1,1',4,4'-tetrahydro-4,4'-dioxo[6,6'-biquinoline]-2,2'-dicarboxylic acid]
[1]
  ability to prophylactically protect against allergic manifestations: have this ability to prophylactically protect against allergic manifestations
